Measurements taken from publication PMC7377239, “Cardiovascular Effects of Polychlorinated Biphenyls and Their Major Metabolites” (Environmental Health Perspectives, 2020).
Read-outs that look alike come from different tables or passages of the source.

Assays:
[1] = test system: iCell cardiomyocytes (human iPSC-derived cardiomyocytes); test: High-content imaging of cytotoxicity and mitochondrial integrity in iPSC-CMs; type: cell-based; conditions: Homo sapiens; for viability at 0.01 µM / activity at 0.01 µM / viability at 0.1 µM / activity at 0.1 µM / viability at 1 µM / activity at 1 µM / viability at 10 µM / activity at 10 µM / viability at 100 µM / activity at 100 µM: Cardiomyocyte, 0.00 µM = 100.00; for viability at 0.1 µM / activity at 0.1 µM: 0.10 µM; for minimal effective concentration: iPSC-CM
Summary of the method: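 Cardiomyocytes grown on gelatinized 384-well plates received fresh medium on the experiment day and were then exposed to chemicals at 0.01–100μM. Nuclei and mitochondria were labeled with Hoechst 33342 and MitoTracker™ Orange, then fixed, and imaged on an ImageXpress® Micro Confocal system. Four-parameter logistic concentration–response fits in R, with a one-standard-deviation vehicle cutoff, gave point-of-departure values.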

HUVECs = test: High-content imaging cytotoxicity in HUVECs, 24 h; type: cell-based, human; conditions: Homo sapiens, HUVEC, 24 h, HUVECs; for viability at 0.01 µM / activity at 0.01 µM / viability at 0.1 µM / activity at 0.1 µM / viability at 1 µM / activity at 1 µM / viability at 10 µM / activity at 10 µM / viability at 100 µM / activity at 100 µM: 0.00 µM = 100.00; for viability at 0.1 µM / activity at 0.1 µM: 0.10 µM; for minimal effective concentration: top concentration 100.00 µM
Summary of the method: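 Read-out: multiwavelength high-content imaging of Hoechst 33342, MitoTracker Orange and calcein AM after 24 h compound exposure of confluent HUVEC monolayers. POD values were set using a one-SD cutoff from vehicle (0.5% DMSO) means; with no concentration–response, 100μM was assigned as no observable adverse effect level.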

[2] = 24 hr, read-out: huvec.cyto.24hr
[3] = 24 hr, read-out: huvec.mito.24hr
[4] = 24 hr, read-out: huvec.mitoint.24hr
[5] = 24 hr, read-out: huvec.nma.24hr
[6] = 24 hrs, read-out: huvec.tc.24hrs

SMILES: COc1ccc(-c2ccc(Cl)cc2)cc1 [4'-OMe PCB3]
- viability at 0.01 µM ([1]; 1.5 h, read-out: cm.cam.90min): 95%
- activity at 0.01 µM ([1]; 1.5 h, read-out: cm.mii.90min): 107%
- activity at 0.01 µM ([1]; 1.5 h, read-out: cm.mito.90min): 94.4%
- viability at 0.01 µM ([1]; 1.5 h, read-out: cm.tc.90min): 94.9%
- viability at 0.1 µM ([1]; 1.5 h, read-out: cm.cam.90min): 96%
- activity at 0.1 µM ([1]; 1.5 h, read-out: cm.mii.90min): 114%
- activity at 0.1 µM ([1]; 1.5 h, read-out: cm.mito.90min): 96%
- viability at 0.1 µM ([1]; 1.5 h, read-out: cm.tc.90min): 96.1%
- viability at 1 µM ([1]; 1.5 h, read-out: cm.cam.90min): 103%
- activity at 1 µM ([1]; 1.5 h, read-out: cm.mii.90min): 103%
- activity at 1 µM ([1]; 1.5 h, read-out: cm.mito.90min): 102%
- viability at 1 µM ([1]; 1.5 h, read-out: cm.tc.90min): 103%
- viability at 10 µM ([1]; 1.5 h, read-out: cm.cam.90min): 102%
- activity at 10 µM ([1]; 1.5 h, read-out: cm.mii.90min): 109%
- activity at 10 µM ([1]; 1.5 h, read-out: cm.mito.90min): 101%
- viability at 10 µM ([1]; 1.5 h, read-out: cm.tc.90min): 101%
- viability at 100 µM ([1]; 1.5 h, read-out: cm.cam.90min): 104%
- activity at 100 µM ([1]; 1.5 h, read-out: cm.mii.90min): 99.8%
- activity at 100 µM ([1]; 1.5 h, read-out: cm.mito.90min): 104%
- viability at 100 µM ([1]; 1.5 h, read-out: cm.tc.90min): 105%
- viability at 0.01 µM ([1]; 24 h, read-out: cm.cam.24hrs): 104%
- activity at 0.01 µM ([1]; 24 h, read-out: cm.mii.24hrs): 87%
- activity at 0.01 µM ([1]; 24 h, read-out: cm.mito.24hrs): 105%
- viability at 0.01 µM ([1]; 24 h, read-out: cm.tc.24hrs): 105%
- viability at 0.1 µM ([1]; 24 h, read-out: cm.cam.24hrs): 102%
- activity at 0.1 µM ([1]; 24 h, read-out: cm.mii.24hrs): 85.8%
- activity at 0.1 µM ([1]; 24 h, read-out: cm.mito.24hrs): 104%
- viability at 0.1 µM ([1]; 24 h, read-out: cm.tc.24hrs): 102%
- viability at 1 µM ([1]; 24 h, read-out: cm.cam.24hrs): 104%
- activity at 1 µM ([1]; 24 h, read-out: cm.mii.24hrs): 98%
- activity at 1 µM ([1]; 24 h, read-out: cm.mito.24hrs): 104%
- viability at 1 µM ([1]; 24 h, read-out: cm.tc.24hrs): 104%
- viability at 10 µM ([1]; 24 h, read-out: cm.cam.24hrs): 104%
- activity at 10 µM ([1]; 24 h, read-out: cm.mii.24hrs): 83.8%
- activity at 10 µM ([1]; 24 h, read-out: cm.mito.24hrs): 104%
- viability at 10 µM ([1]; 24 h, read-out: cm.tc.24hrs): 104%
- viability at 100 µM ([1]; 24 h, read-out: cm.cam.24hrs): 92.3%
- activity at 100 µM ([1]; 24 h, read-out: cm.mii.24hrs): 122%
- activity at 100 µM ([1]; 24 h, read-out: cm.mito.24hrs): 94.2%
- viability at 100 µM ([1]; 24 h, read-out: cm.tc.24hrs): 92.4%
- minimal effective concentration ([1]; 1.5 h, read-out: cm.cam.90min POD): 100 µM
- minimal effective concentration ([1]; 1.5 h, read-out: cm.mii.90min POD): 100 µM
- minimal effective concentration ([1]; 1.5 h, read-out: cm.mito.90min POD): 100 µM
- minimal effective concentration ([1]; 1.5 h, read-out: cm.tc.90min POD): 100 µM
- minimal effective concentration ([1]; 24 h, read-out: cm.cam.24hrs POD): 82.9 µM
- minimal effective concentration ([1]; 24 h, read-out: cm.mii.24hrs POD): 100 µM
- minimal effective concentration ([1]; 24 h, read-out: cm.mito.24hrs POD): 100 µM
- minimal effective concentration ([1]; 24 h, read-out: cm.tc.24hrs POD): 100 µM
- viability at 0.01 µM (HUVECs; [2]): 87.9%
- activity at 0.01 µM (HUVECs; [3]): 86.7%
- activity at 0.01 µM (HUVECs; [4]): 91.6%
- activity at 0.01 µM (HUVECs; [5]): 101%
- viability at 0.1 µM (HUVECs; [2]): 99.3%
- activity at 0.1 µM (HUVECs; [3]): 98.5%
- activity at 0.1 µM (HUVECs; [4]): 97.3%
- activity at 0.1 µM (HUVECs; [5]): 98.2%
- viability at 1 µM (HUVECs; [2]): 94.1%
- activity at 1 µM (HUVECs; [3]): 93.8%
- activity at 1 µM (HUVECs; [4]): 91%
- activity at 1 µM (HUVECs; [5]): 96.4%
- viability at 10 µM (HUVECs; [2]): 94.1%
- activity at 10 µM (HUVECs; [3]): 92.9%
- activity at 10 µM (HUVECs; [4]): 94%
- activity at 10 µM (HUVECs; [5]): 92.3%
- viability at 100 µM (HUVECs; [2]): 70.2%
- activity at 100 µM (HUVECs; [3]): 70.1%
- activity at 100 µM (HUVECs; [5]): 73.7%
- minimal effective concentration (HUVECs; 24 hr, read-out: huvec.cyto.24hr POD): 8.6 µM
- minimal effective concentration (HUVECs; 24 hr, read-out: huvec.mito.24hr POD): 5.97 µM
- minimal effective concentration (HUVECs; 24 hr, read-out: huvec.mitoint.24hr POD): 32 µM
- minimal effective concentration (HUVECs; 24 hr, read-out: huvec.nma.24hr POD): 1.41 µM
- viability at 0.01 µM (HUVECs; [6]): 87.9%
- viability at 0.1 µM (HUVECs; [6]): 99.3%
- viability at 1 µM (HUVECs; [6]): 94.1%
- viability at 10 µM (HUVECs; [6]): 94.1%
- viability at 100 µM (HUVECs; [6]): 70.2%
- minimal effective concentration (HUVECs; 24 hrs, read-out: huvec.tc.24hrs POD): 8.6 µM
